In US20260008775A1, “AZOLE MODULATORS OF CHOLESTEROL BIOSYNTHESIS AND THEIR USE FOR PROMOTING REMYELINATION” (GENENTECH, INC., priority 2022, published 2026):

Experiments:
[1] = target: human emopamil binding protein and human 7-dehydrocholesterol reductase (hEBP-DHCR7) (Homo sapiens (Human), UniProt Q15125); test: hEBP-DHCR7 radioligand binding assay (filter binding, membranes of co-expressing HEK293 cells); settings: competition with [3H] radioligand, 8 doses 0.06 to 5000 nM, Ki calculated from IC50
Chain of human emopamil binding protein and human 7-dehydrocholesterol reductase (hEBP-DHCR7) (Q15125 whole entry): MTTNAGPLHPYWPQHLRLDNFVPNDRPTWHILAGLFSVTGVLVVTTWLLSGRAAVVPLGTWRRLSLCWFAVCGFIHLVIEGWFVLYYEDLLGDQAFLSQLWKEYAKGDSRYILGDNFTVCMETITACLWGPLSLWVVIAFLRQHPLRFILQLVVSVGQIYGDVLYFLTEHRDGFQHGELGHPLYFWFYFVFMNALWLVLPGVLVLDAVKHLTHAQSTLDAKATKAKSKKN
Method in brief: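 Compound, either single dose 1 μM or eight 5-fold dilutions from 0.06 to 5000 nM, competed with a [3H]-labelled ligand added at 25 nM for binding to co-expressing HEK293 membranes. IC50 came from nonlinear regression, with full block and DMSO as controls, then Cheng–Prusoff conversion to Ki.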

[2] = test system: zymostenol accumulation (EBP) in EpiSC-derived OPCs; test: GC/MS-based sterol profiling, zymostenol accumulation in EpiSC-derived OPCs; format: cell-based, mouse; settings: Mus musculus, 24 h, EpiSC-derived OPCs, 24 hr, 8 doses from 0.15 nM to 333 nM; read-out: Mouse Zymostenol GCMS EC50
Method in brief: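 Zymostenol level is expressed relative to that after 24 h with 100 nM positive-control reference, measured by full-scan GC/MS (m/z 458) with cholesterol-d7 internal standard after BSTFA derivatisation. Cells were EpiSC-derived OPCs, 100,000/well in N2B27 without growth factors, treated 24 h, from two or more independent platings.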

EpiSC-derived OPCs = test: In vitro phenotypic screening of OPCs, MBP high-content imaging (percentage of oligodendrocytes); format: cell-based, mouse; settings: Mus musculus, 72 h, 3 days, MBP stain, dose-response 0.5 nM to 1000 nM; read-out: OPC EC50
Method in brief: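 EC50 was fitted by Hill equation to the MBP-positive oligodendrocyte percentage from imaging of fixed, MBP- and DAPI-stained cells. Treatment lasted 3 days at 37 °C, final doses 0.5–1000 nM over 8 points, in growth factor-free N2B27. Cells were EpiSC-derived OPCs, tested in at least two independent platings.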

| SMILES | Ki [1] [nM] | EC50 [2] [nM] | EC50 (EpiSC-derived OPCs) [nM] |
| --- | --- | --- | --- |
| CC(C)n1nc(-c2cncc(C(F)(F)F)c2)cc1[C@H]1CC[C@H](N2CCOCC2)CC1 [2*, 4-((1r,4r)-4-(1-isopropyl-3-(5-(trifluoromethyl)pyridin-3-yl)-1H-pyrazol-5-yl)cyclohexyl)morpholine] | 40.5 | 17 | 97.5 |
| CCn1nc(-c2ccc(C(F)(F)F)nc2)nc1[C@H]1CC[C@@H](N2CCCOCC2)CC1 [7*, 4-((1s,4s)-4-(1-ethyl-3-(6-(trifluoromethyl)pyridin-3-yl)-1H-1,2,4-triazol-5-yl)cyclohexyl)-1,4-oxazepane] | 135 | 26.3 | 158 |
| CCn1nc(-c2ccc(C(F)(F)F)nc2)nc1[C@H]1CC[C@H](N2CCCOCC2)CC1 [8*, 4-((1r,4r)-4-(1-ethyl-3-(6-(trifluoromethyl)pyridin-3-yl)-1H-1,2,4-triazol-5-yl)cyclohexyl)-1,4-oxazepane] | 38.2 | 44.8 | 280 |
| CC(C)n1nc(-c2cccc(C(F)(F)F)c2)nc1[C@H]1[C@@H]2C[C@H](N3CCOCC3)C[C@@H]21 [19*, 4-((1R,3r,5S,6r)-6-(1-isopropyl-3-(3-(trifluoromethyl)phenyl)-1H-1,2,4-triazol-5-yl)bicyclo[3.1.0]hexan-3-yl)morpholine] | 9.93 | 7.92 | 140 |
| CC(C)n1nc(-c2ccc(C(F)(F)F)nc2)nc1[C@@H]1CC[C@H](N2CCCOCC2)C1 [Compound 4, 4-((1S,3R)-3-(1-isopropyl-3-(6-(trifluoromethyl)pyridin-3-yl)-1H-1,2,4-triazol-5-yl)cyclopentyl)-1,4-oxazepane] | 8.28 | 12.3 | 38.7 |
| CC(C)n1nc(-c2ccc(C(F)(F)F)nc2)nc1[C@H]1CC[C@H](N2CCCOCC2)C1 [Compound 5, 4-((1S,3S)-3-(1-isopropyl-3-(6-(trifluoromethyl)pyridin-3-yl)-1H-1,2,4-triazol-5-yl)cyclopentyl)-1,4-oxazepane] | 52.7 | 44.2 | 196 |
| CC(C)n1nc(-c2ccc(C(F)(F)F)nc2)nc1[C@H]1CC[C@@H](N2CCCOCC2)C1 [Compound 6, 4-((1R,3S)-3-(1-isopropyl-3-(6-(trifluoromethyl)pyridin-3-yl)-1H-1,2,4-triazol-5-yl)cyclopentyl)-1,4-oxazepane] | 34.7 | 10.5 | 34.3 |
| CC(C)n1nc(-c2cncc(C(F)(F)F)c2)cc1[C@H]1[C@@H]2C[C@H](N3CCCOCC3)C[C@@H]21 [Compound 29, 4-((1R,3s,5S,6r)-6-(1-Isopropyl-3-(5-(trifluoromethyl)pyridin-3-yl)-1H-pyrazol-5-yl)bicyclo [3.1.0]hexan-3-yl)-1,4-oxazepane] | 20 | 3.19 | 19.8 |
| CC(C)n1nc(-c2cccc(C(F)(F)F)n2)cc1[C@H]1[C@@H]2C[C@@H](N3CCOCC3)C[C@@H]21 [Compound 31, 4-((1R,3s,5S,6r)-6-(1-Isopropyl-3-(6-(trifluoromethyl)pyridin-2-yl)-1H-pyrazol-5-yl)bicyclo[3.1.0]hexan-3-yl)morpholine] | 100 | 241 | 643 |
| CC(C)n1nc(-c2cccc(C(F)(F)F)n2)cc1[C@H]1[C@@H]2C[C@H](N3CCOCC3)C[C@@H]21 [Compound 32, 4-((1R,3r,5S,6r)-6-(1-isopropyl-3-(6-(trifluoromethyl)pyridin-2-yl)-1H-pyrazol-5-yl)bicyclo[3.1.0]hexan-3-yl)morpholine] | 34.5 | 52 | 354 |
| CC(C)n1nc(-c2cncc(C(F)(F)F)c2)cc1[C@H]1[C@@H]2C[C@@H](N3CCOC(C)(C)C3)C[C@@H]21 [Compound 33, 4-((1R,3s,5S,6r)-6-(1-Isopropyl-3-(5-(trifluoromethyl)pyridin-3-yl)-1H-pyrazol-5-yl)bicyclo[3.1.0]hexan-3-yl)-2,2-dimethylmorpholine] | 19.4 | 5.33 | 30.5 |
| CC(C)n1nc(-c2cncc(C(F)(F)F)c2)cc1[C@H]1[C@@H]2C[C@H](N3CCOC(C)(C)C3)C[C@@H]21 [Compound 34, 4-((1R,3r,5S,6r)-6-(1-isopropyl-3-(5-(trifluoromethyl)pyridin-3-yl)-1H-pyrazol-5-yl)bicyclo[3.1.0]hexan-3-yl)-2,2-dimethylmorpholine] | 34.5 | 52 | 354 |
| CC(C)n1nc(-c2ccc(C(F)(F)F)nc2)cc1[C@H]1[C@@H]2C[C@@H](N3CCCOCC3)C[C@@H]21 [Compound 47, 4-((1R,3S,5S,6R)-6-(1-Isopropyl-3-(6-(trifluoromethyl)pyridin-3-yl)-1H-pyrazol-5-yl)bicyclo[3.1.0]hexan-3-yl)-1,4-oxazepane] | 43 | 46 | 145 |
| CC(C)n1nc(-c2ccc(C(F)(F)F)nc2)cc1[C@H]1[C@@H]2C[C@H](N3CCCOCC3)C[C@@H]21 [Compound 48, 4-((1R,3S,5S,6R)-6-(1-Isopropyl-3-(6-(trifluoromethyl)pyridin-3-yl)-1H-pyrazol-5-yl)bicyclo[3.1.0]hexan-3-yl)-1,4-oxazepane] | 18.4 | 7.28 | 11.6 |
| CC(C)n1nc(-c2cccc(C(F)(F)F)n2)cc1[C@H]1[C@@H]2C[C@@H](N3CCCOCC3)C[C@@H]21 [Compound 49, 4-((1R,3s,5S,6r)-6-(1-Isopropyl-3-(6-(trifluoromethyl)pyridin-2-yl)-1H-pyrazol-5-yl)bicyclo[3.1.0]hexan-3-yl)-1,4-oxazepane] | 53 | 42 | 75 |
| CC(C)n1nc(-c2cccc(C(F)(F)F)n2)cc1[C@H]1[C@@H]2C[C@H](N3CCCOCC3)C[C@@H]21 [Compound 50, 4-((1R,3r,5S,6r)-6-(1-Isopropyl-3-(6-(trifluoromethyl)pyridin-2-yl)-1H-pyrazol-5-yl)bicyclo[3.1.0]hexan-3-yl)-1,4-oxazepane] | 21 | 1.62 | 7.72 |
| CC(C)n1nc(-c2cncc(C(F)(F)F)c2)nc1[C@H]1[C@@H]2C[C@H](N3CCCOCC3)C[C@@H]21 [Compound 51, 4-((1R,3r,5S,6r)-6-(1-Isopropyl-3-(5-(trifluoromethyl)pyridin-3-yl)-1H-1,2,4-triazol-5-yl)bicyclo[3.1.0]hexan-3-yl)-1,4-oxazepane] | 358 | 77 | 82.5 |
| CC(C)n1nc(-c2cncc(C(F)(F)F)c2)nc1[C@H]1[C@@H]2C[C@@H](N3CCCOCC3)C[C@@H]21 [Compound 52, 4-((1R,3s,5S,6r)-6-(1-Isopropyl-3-(5-(trifluoromethyl)pyridin-3-yl)-1H-1,2,4-triazol-5-yl)bicyclo[3.1.0]hexan-3-yl)-1,4-oxazepane] | 18.1 | 3.1 | 6.29 |
| CCn1nc(-c2cncc(C(F)(F)F)c2)cc1[C@H]1[C@@H]2C[C@@H](N3CCCOCC3)C[C@@H]21 [Compound 53, 4-((1R,3s,5S,6r)-6-(1-Ethyl-3-(5-(trifluoromethyl)pyridin-3-yl)-1H-pyrazol-5-yl)bicyclo[3.1.0]hexan-3-yl)-1,4-oxazepane] | 12.5 | 13.8 | 75 |
| CCn1nc(-c2cncc(C(F)(F)F)c2)cc1[C@H]1[C@@H]2C[C@H](N3CCCOCC3)C[C@@H]21 [Compound 54, 4-((1R,3r,5S,6r)-6-(1-ethyl-3-(5-(trifluoromethyl)pyridin-3-yl)-1H-pyrazol-5-yl)bicyclo[3.1.0]hexan-3-yl)-1,4-oxazepane] | 10.6 | 3 | 12.4 |
| CC(C)n1nc(-c2cccc(C(F)(F)F)c2)nc1[C@H]1[C@@H]2C[C@@H](N3CCOC[C@@H]3C)C[C@@H]21 [Compound 66, (S)-4-((1R,3r,5S,6S)-6-(1-Isopropyl-3-(3-(trifluoromethyl)phenyl)-1H-1,2,4-triazol-5-yl)bicyclo[3.1.0]hexan-3-yl)-3-methylmorpholin] | 50.2 | 2.84 | 14.9 |
| CC(C)n1nc(-c2cccc(C(F)(F)F)c2)nc1[C@H]1[C@@H]2C[C@H](N3CCOC[C@@H]3C)C[C@@H]21 [Compound 67, (S)-4-((1R,3s,5S,6S)-6-(1-Isopropyl-3-(3-(trifluoromethyl)phenyl)-1H-1,2,4-triazol-5-yl)bicyclo[3.1.0]hexan-3-yl)-3-methylmorpholine] | 50 | 66.5 | 233 |
| CC(C)n1nc(-c2cncc(OC(F)F)c2)nc1[C@H]1[C@@H]2C[C@@H](N3CCCOCC3)C[C@@H]21 [Compound 68, 4-((1R,3s,5S,6r)-6-(3-(5-(Difluoromethoxy)pyridin-3-yl)-1-isopropyl-1H-1,2,4-triazol-5-yl)bicyclo[3.1.0]hexan-3-yl)-1,4-oxazepane] | 119 | 146 | 417 |
| CC(C)n1nc(-c2cncc(OC(F)F)c2)nc1[C@H]1[C@@H]2C[C@H](N3CCCOCC3)C[C@@H]21 [Compound 69, 4-((1R,3r,5S,6r)-6-(3-(5-(Difluoromethoxy)pyridin-3-yl)-1-isopropyl-1H-1,2,4-triazol-5-yl)bicyclo[3.1.0]hexan-3-yl)-1,4-oxazepane] | 27.9 | 8.19 | 27.3 |
